Laboratory results: patent publication US12509451B2, “Heteroaryl amide inhibitors of CD38” (NAPA THERAPEUTICS LTD., priority 2020, dated 2025)

Columns and labels:
[1] = target: T1, recombinant human CD38 Protein (Homo sapiens, UniProt P28907); experiment: Fluorescence-based NAD+ hydrolase activity assay with human recombinant CD38 protein (Assay 3); type: biochemical; conditions: read-out: Assay 3 Arithmetic mean IC50
T1 construct: purchased R&D System
T1 sequence (P28907 1-300): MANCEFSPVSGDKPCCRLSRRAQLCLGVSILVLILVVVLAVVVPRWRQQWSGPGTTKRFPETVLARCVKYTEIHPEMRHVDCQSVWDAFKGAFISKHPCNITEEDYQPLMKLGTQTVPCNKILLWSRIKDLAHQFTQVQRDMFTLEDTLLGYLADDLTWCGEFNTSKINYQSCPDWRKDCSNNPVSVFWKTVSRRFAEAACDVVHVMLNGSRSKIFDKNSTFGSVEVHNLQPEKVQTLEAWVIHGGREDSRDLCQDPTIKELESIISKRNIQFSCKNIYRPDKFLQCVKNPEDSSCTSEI
Method: This protocol was modified from the following references (Muller et al. (1983); (Schultz et al. (2018); (Matalonga et al. (2017); and de Oliveira et al. (2018), supra.
NAD+ hydrolase activity of the human recombinant CD38 protein treated with test compounds was measured using a fluorescence-based assay. Briefly, recombinant human CD38 Protein (R&D System) was resuspended in 44 μl/well of Sucrose-Tris Buffer (Sucrose 0.25 M, Tris pH 7.4 40 mM) and plated in a 96-well black plate (CORNING) at a density of 10 ng/well.
(§1) Each test compound was received in a powder state and dissolved in DMSO as a 25 mM stock solution. Each test compound was serially diluted in order to generate a dose-response curve. The dilution series of each test compound in DMSO was prepared at 50× the concentrations to be assayed. Each test compound was diluted to generate a 5-fold dilution series of 8 concentrations from 20 μM to 0.256 nM in order to assay 8 final concentrations ranging from ranging from 400 nM to 25.6 pM. One μl of the 50× concentration compound series was added to each well of the plate containing 10 ng protein in Sucrose-Tris buffer.
The reaction was started adding nicotinamide 1,N^6-etheno-adenine dinucleotide (Sigma Aldrich) to reach a final concentration of 80 µM. The samples were excited at 321-15 nm and the emission of fluorescence was measured at 410-20 nm at 37° C. every minute for 1 hr in a Clariostar® microplate reader (BMG LABTECH). NAD+ hydrolase activity was calculated as the slope of the linear portion of the fluorescence-time curve using the MARS data analysis software (BMG LABTECH). The data were uploaded in the Collaborative Drug Design (CDD) Software and for each compound the IC50 was calculated by the software. […] For each plate, the z-factor was also calculated as a plate quality using the CDD software.

[2] = target: T2, CD38 NAD+ hydrolase activity in NH7-dCas9 cells (Jurkat clone) (Homo sapiens, UniProt P28907); experiment: Fluorescence-based NAD+ hydrolase activity assay with human T cell line NH7-dCas9 cells-Jurkat clone (Assay 1); conditions: read-out: Assay 1 Arithmetic mean IC50
T2 construct: The assay utilized CD38 expressing NH7-dCas9 cells (Jurkat clone); host or cells: NH7-dCas9 cells (Jurkat clone)
T2 sequence (P28907 1-300): T1 sequence (P28907 1-300)
Method: For the modified assay, the performance validation criteria of the assay as a High Throughput Screening (HTS): Z-factor within the plate was greater than 0.89 (optimal HTS z-factor >0.5) and the Intra-plate, inter-plate and day to day variability (CV) was less than 20%.
NAD+ hydrolase activity of a human T cell line treated with test compounds was measured using a fluorescence-based assay. NH7-dCas9 cells (Jurkat clone) were provided by the Weissman Lab (UCSF 1700 4th St., Byers Hall, Room 403B, San Francisco, CA 94158-2330). Briefly, cells were centrifuged, resuspended in 44 μl PBS/10^6 cells and plated in a 96 well black plate (CORNING) at a density of 1×10^6 per well.
as §1, with “at 50 times” for “at 50×”, “from” for “from ranging from”, “containing 1×10^6 cells” for “containing 10 ng protein”, “in PBS.” for “in Sucrose-Tris buffer.”
Each plate had the following intra plate controls: 3 wells containing cells treated with vehicle only (DMSO), 3 wells of cells treated with the reference compound 78c at a final concentration of 50 nM and 2 wells containing only PBS (used as a background value).
The reaction was started by adding nicotinamide 1,N^6-etheno-adenine dinucleotide (Sigma Aldrich) to reach a final concentration of 80 µM. The samples were excited at 321-15 nm, and the emission of fluorescence was measured at 410-20 nm at 37° C. every minute for 1 hr in a Clariostar® microplate reader (BMG LABTECH). NAD+ hydrolase activity was calculated as the slope of the linear portion of the fluorescence-time curve using the MARS data analysis software (BMG LABTECH). The data were uploaded in the Collaborative Drug Design (CDD) Software and for each compound the IC50 was calculated by the software. Each compound was tested in 3 independent experiments on 3 separate days to establish the reproducibility of the results. For each plate, the z-factor was also calculated as a plate quality using the CDD software.

IC50 [1] [nM] | IC50 [2] [nM] | Compound
1 to 50 | < 1 | Cn1cncc1-c1cccc(C(=O)Nc2ccc(C(F)(F)F)nc2)n1 [Compound 43]
< 1 | < 1 | CCOc1cc(C(=O)Nc2ccnc(C(F)(F)F)c2)nc(-n2ccnc2)n1 [Compound 38]
1 to 50 | < 1 | Nc1cc(C(=O)Nc2cccnc2)nc(-n2ccnc2)c1 [Compound 67]
1 to 50 | < 1 | NC(=O)c1ccc(NC(=O)c2cccc(-n3ccnc3)n2)cn1 [Compound 3]
1 to 50 | 1 to 50 | CC(=O)Nc1ccc(NC(=O)c2cccc(-n3ccnc3)n2)cn1 [Compound 16]
1 to 50 | < 1 | Cc1cc(C(=O)Nc2ccncc2)nc(-c2nccn2C)c1 [Compound 45]
1 to 50 | < 1 | Cc1cc(NC(=O)c2cccc(-n3ccnc3)n2)cc(C)n1 [Compound 7]
1 to 50 | 1 to 50 | O=C(Nc1ccc(F)nc1)c1cccc(-n2ccnc2)n1 [Compound 22]
1 to 50 | 1 to 50 | O=C(Nc1ccncc1)c1cccc(-n2ccnc2)n1 [Compound 13]
